According to patent US7223751B2, “Sulfonamide derivatives, intermediate thereof, its preparation methods, and pharmaceutical composition comprising the same” (Kolon Ind. Inc., priority 2001, dated 2007):

Tests used:
MMP-2 = target: T1, MMP-2 (Homo sapiens, UniProt P08253); assay: MMP inhibiting activity, fluorescence assay; format: biochemical; conditions: read-out: Enzyme inhibiting constant IC50 MMP-2
T1 sequence (P08253 110-660): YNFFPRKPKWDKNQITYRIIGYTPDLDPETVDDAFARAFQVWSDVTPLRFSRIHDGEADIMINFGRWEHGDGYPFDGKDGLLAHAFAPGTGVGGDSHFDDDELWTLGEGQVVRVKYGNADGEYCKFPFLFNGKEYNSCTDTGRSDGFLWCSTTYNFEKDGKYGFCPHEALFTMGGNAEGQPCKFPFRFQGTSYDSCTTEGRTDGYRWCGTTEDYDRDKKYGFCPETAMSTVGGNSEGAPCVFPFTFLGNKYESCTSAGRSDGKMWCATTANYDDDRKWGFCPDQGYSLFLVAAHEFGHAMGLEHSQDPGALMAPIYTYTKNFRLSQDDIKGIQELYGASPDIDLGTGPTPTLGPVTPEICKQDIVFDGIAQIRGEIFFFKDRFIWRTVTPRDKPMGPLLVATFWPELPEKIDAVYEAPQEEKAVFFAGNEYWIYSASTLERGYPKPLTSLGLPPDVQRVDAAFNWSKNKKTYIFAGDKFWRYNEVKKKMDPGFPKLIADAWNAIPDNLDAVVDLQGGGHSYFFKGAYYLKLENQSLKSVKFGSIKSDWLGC
Method: (§1) Inhibitory activities of all the enzymes were measured similarly to the MMP-2 activity measuring method shown below. Prior to measuring, proMMP-2 was treated with 1 mM p-aminophenyl mercuricacetate at 37° C. for 45 minutes to activate it. The ProMMP-9 was activated to an enzyme with MMP-3, and stored at −80° C. until used.
(§2) MMP activities were measured by fluorescence assay by changing a microtiter plate formate according to the reported method (Knight, C. G., Willenbrock, F., Murphy, G. A., FEBS Lett. 1992, 296, 263-266). On a dynatech MicroFLUOR plate, a buffer solution comprising 50 Mm Tris-HCl pH 7.5, 10 mM CaCl2, 0.15 M NaCl, 0.05% Brij, and 1-8 μM of a substrate (Mca-Pro-Leu-Gly-Leu-Dpa-Ala-Arg-NH2), and various concentrations of inhibitors were introduced, and it was reacted with activated enzymes at 37° C. for 20-30 minutes. Reaction was terminated by putting the reactant in 50 mM EDTA, and then fluorescence was measured with a spectrofluorometer attached to a microplate reader (λex 328 nm, λ em 393 nm). The inhibiting activity degree was indicated by an IC50 value, which is a concentration inhibiting activity by 50% compared to the control.

MMP-13 = MMP-13 (Homo sapiens, UniProt P45452); assay: MMP inhibiting activity, fluorescence assay; format: biochemical; conditions: read-out: Enzyme inhibiting constant IC50 MMP-13
Method: as §1, §2

MMP-1 = target: T2, MMP-1 (Homo sapiens, UniProt P03956); assay: MMP inhibiting activity, fluorescence assay; format: biochemical; conditions: read-out: Enzyme inhibiting constant IC50 MMP-1
T2 sequence (P03956 100-469): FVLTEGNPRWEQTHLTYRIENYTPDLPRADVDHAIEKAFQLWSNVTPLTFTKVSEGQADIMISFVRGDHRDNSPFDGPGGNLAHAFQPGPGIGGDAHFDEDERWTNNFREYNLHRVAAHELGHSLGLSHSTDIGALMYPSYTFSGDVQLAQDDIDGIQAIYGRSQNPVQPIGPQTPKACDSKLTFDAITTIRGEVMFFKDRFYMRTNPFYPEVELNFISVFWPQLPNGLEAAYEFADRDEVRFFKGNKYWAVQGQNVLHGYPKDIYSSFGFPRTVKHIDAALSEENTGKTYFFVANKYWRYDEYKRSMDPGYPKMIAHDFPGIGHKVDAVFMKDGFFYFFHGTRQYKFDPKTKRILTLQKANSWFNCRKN
Method: as §1, §2

[1] = test system: HUVEC (human umbilical vein endothelial cell) cells; assay: Tube formation activity on matrigel; format: cell-based; parameters: key: −: control; ±: tube almost resembles control; +: inhibition; ++: significant inhibition; +++: complete inhibition; conditions: 16-24 hours
Method: In a culture flask previously coated with gelatin, HUVEC (human umbilical vein endothelial cell) cells cultured with a M199 medium (containing 20% FBS, 3 ng/ml bFGF, 100 μg/ml heparin) were treated with trypsin/EDTA, and then number of cells are counted so that number of cells may be 2×10^4 cells/well in a 96-well plate previously coated with matrigel. Samples were then added and cultured in a CO2 culture medium at 37° C. for 16-24 hours.

| Compound | IC50 (MMP-2) | IC50 (MMP-13) | IC50 (MMP-1) | Tube Formation ([1]; concentration 5 μM) | Tube Formation ([1]; concentration 50 μM) | Tube Formation ([1]; concentration 100 μM) | Tube Formation ([1]; concentration 0.5 μM) |
| --- | --- | --- | --- | --- | --- | --- | --- |
| 1-(4-Methoxy-benzenesulfonyl)-4-methyl-5-oxo-piperazine-2-hydroxamate [Example 25] | 3 nM | 16 nM | 82 nM | − | − | + |  |
| COc1ccc(S(=O)(=O)N2CC(=O)N(CCN3CCOCC3)CC2C(=O)NO)cc1.Cl (centres unmarked) [Example 11, 1-(4-Methoxy-benzenesulfonyl)-4-(2-morpholin-4-yl-ethyl)-5-oxo-piperazine-2-hydroxamate hydrochloride] |  |  |  | ± | + |  |  |
| CCCCOCCCN1CC(C(=O)O)N(S(=O)(=O)c2ccc(-c3ccc(Br)cc3)cc2)CC1=O (centres unmarked) [Example 41, 1-(4′-Bromo-biphenyl-4-sulfonyl)-4-(3-butoxy-propyl)-5-oxo-piperazine-2-carboxylic acid] |  |  |  | ++ | +++ |  | ++ |
| 1-Cyclopropyl-5-hydroxymethyl-4-(4-methoxy-benzenesulfonyl)-5-oxo-piperazin-2-one [Example 27] |  |  |  | ++ | ++ |  |  |
| 4-Cyclopropyl-1-(4-methoxy-benzenesulfonyl)-5-oxo-piperazine-2-hydroxamate [Example 17] |  |  |  | + | + | ++ |  |
| CN(C)CCCN1CC(C(=O)O)N(S(=O)(=O)c2ccc(-c3ccc(Br)cc3)cc2)CC1=O (centres unmarked) [Example 43, 1-(4′-Bromo-biphenyl-4-sulfonyl)-4-(3-dimethylamino-propyl)-5-oxo-piperazine-2-carboxylic acid] |  |  |  | ++ | ++ |  | + |
| O=C(O)C1CN(CCCCCCO)C(=O)CN1S(=O)(=O)c1ccc(-c2ccc(Br)cc2)cc1 (centres unmarked) [Example 51, 1-(4′-Bromo-biphenyl-4-sulfonyl)-4-(6-hydroxy-hexyl)-5-oxo-piperazine-2-carboxylic acid] | 5 nM | 19 nM | 29 nM |  |  |  |  |
| CCCCCCCCCCCCN1CC(C(=O)O)N(S(=O)(=O)c2ccc(-c3ccc(Br)cc3)cc2)CC1=O (centres unmarked) [Example 39, 1-(4′-Bromo-biphenyl-4-sulfonyl)-4-dodecyl-5-oxo-piperazine-2-carboxylic acid] | 567 nM | 2350 nM | 8270 nM | − | + |  | − |
| 1-(4-Methoxy-benzenesulfonyl)-5-oxo-4-prop-2-ynyl-piperazine-2-hydroxamate [Example 23] |  |  |  | + | ++ | +++ |  |
| CCCCCCCCC=CCCCCCCCCN1CC(C(=O)O)N(S(=O)(=O)c2ccc(-c3ccc(Br)cc3)cc2)CC1=O (centres unmarked) [Example 53, 1-(4′-Bromo-biphenyl-4-sulfonyl)-4-octadec-9-enyl-5-oxo-piperazine-2-carboxylic acid] | 220 nM | > 10000 nM | > 10000 nM |  |  |  |  |
| C#CCN1CC(C(=O)O)N(S(=O)(=O)c2ccc(-c3ccc(Br)cc3)cc2)CC1=O (centres unmarked) [Example 35, 1-(4′-Bromo-biphenyl-4-sulfonyl)-5-oxo-4-prop-2-ynyl-piperazine-2-carboxylic acid] |  |  |  | ++ | +++ |  | ++ |
| CCCCN1CC(C(=O)O)N(S(=O)(=O)c2ccc(-c3ccc(Br)cc3)cc2)CC1=O (centres unmarked) [Example 49, 1-(4′-Bromo-biphenyl-4-sulfonyl)-4-butyl-5-oxo-piperazine-2-carboxylic acid] | 9 nM | 1130 nM | 114 nM | ++ | ++ |  | ± |
| O=C(O)C1CN(Cc2ccccc2)C(=O)CN1S(=O)(=O)c1ccc(-c2ccc(Br)cc2)cc1 (centres unmarked) [Example 37, 4-Benzyl-1-(4′-bromo-biphenyl-4-sulfonyl)-5-oxo-piperazine-2-carboxylic acid] |  |  |  | ++ | +++ |  | ++ |
| CCCCCCCCCCN1CC(C(=O)O)N(S(=O)(=O)c2ccc(-c3ccc(Br)cc3)cc2)CC1=O (centres unmarked) [Example 47, 1-(4′-Bromo-biphenyl-4-sulfonyl)-4-decyl-5-oxo-piperazine-2-carboxylic acid] | 140 nM | 2460 nM | 5400 nM | ++ | +++ |  | ++ |
| COc1ccc(S(=O)(=O)N2CC(=O)N(Cc3ccccn3)CC2C(=O)NO)cc1.Cl (centres unmarked) [Example 13, 1-(4-Methoxy-benzenesulfonyl)-5-oxo-4-pyridin-2-yl-methyl-piperazine-2-hydroxamate hydrochloride] |  |  |  | ± | + | + |  |
| CCCCCCCCN1CC(C(=O)O)N(S(=O)(=O)c2ccc(-n3cccc3)cc2)CC1=O (centres unmarked) [Example 58, 4-Octyl-5-oxo-1-(4-pyrrol-1-yl-benzenesulfonyl)-piperazine-2-carboxylic acid] |  |  |  | ++ | ++ |  | ± |
| 4-Allyl-1-(4-methoxy-benzenesulfonyl)-5-oxo-piperazine-2-hydroxamate [Example 21] |  |  |  | ± | + |  |  |
| CCCCCCN1CC(C(=O)O)N(S(=O)(=O)c2ccc(-c3ccc(Br)cc3)cc2)CC1=O (centres unmarked) [Example 45, 1-(4′-Bromo-biphenyl-4-sulfonyl)-4-hexyl-5-oxo-piperazine-2-carboxylic acid] | 11 nM | 82 nM | 95 nM | ++ | ++ |  | ++ |
| COc1ccc(S(=O)(=O)N2CC(=O)N(CCc3ccccn3)CC2C(=O)NO)cc1 (centres unmarked) [Example 15] | > 10000 nM | > 10000 nM | > 10000 nM | + | + | ++ |  |
| CCCCN1CC(C(=O)O)N(S(=O)(=O)c2ccc(OC)cc2)CC1=O (centres unmarked) [Example 26, 4-Butyl-1-(4-methoxy-benzenesulfonyl)-5-oxo-piperazine-2-carboxylic acid] |  |  |  | ± | + | ++ |  |
| COc1ccc(S(=O)(=O)N2CC(=O)N(CCN3CCCCC3)CC2C(=O)NO)cc1.Cl (centres unmarked) [Example 9, 1-(4-Methoxy-benzenesulfonyl)-5-oxo-4-(2-piperidin-1-yl-ethyl)-piperazine-2-hydroxamate hydrochloride] |  |  |  | − | ± |  |  |
| 4-Butyl-1-(4-methoxy-benzenesulfonyl)-5-oxo-piperazine-2-hydroxamate [Example 19] | 15 nM | 14 nM | 47 nM | + | + | ++ |  |
| CCCCCCCCN1CC(C(=O)O)N(S(=O)(=O)c2ccc(-c3ccc(Br)cc3)cc2)CC1=O (centres unmarked) [Example 33, 1-(4′-Bromo-biphenyl-4-sulfonyl)-4-octyl-5-oxo-piperazine-2-carboxylic acid] | 80 nM | 2100 nM | 2430 nM | + | ++ | +++ |  |
